For 2 molecules, pKa and Activity results are on record in ChEMBL document CHEMBL1133196, “A model for ZnII-containing-beta-lactamase: synthesis, X-ray crystal structure of a zinc(II) complex bearing thiol group and hydrolysis of phosphate diester” (Bioorg Med Chem Lett, 2000).

The term pKa denotes the negative logarithm of the acid dissociation constant. Read a low pKa as a group that gives up its proton readily.

A short description of data set [1]: Dissociation constant was evaluated. It counts as physicochemical.
The nature of data set [2]: Rate of hydrolysis of nitrocefin by compound was evaluated in water. Format: ADME. Particulars: buffer.

In turn, `Cl.Cl.[Zn+2].c1ccc(CNCc2ccccn2)nc1` came in with a pKa in data set [1] of 9.4. This molecule yielded an Activity in data set [2] of 2.52e-08 M⁻¹ s⁻¹.

With `[Cl-].[S-]CCN(Cc1ccccn1)Cc1ccccn1.[Zn+2]`, the pKa in data set [1] was found to be 9. The same molecule came in with an Activity in data set [2] of 6.5e-09 M⁻¹ s⁻¹.
